Measured values: patent US20260364186A1, “Chemical Conjugates, Compositions, and Methods of Preparation and Use Thereof” (Transfection Holdings Limited, priority 2022, published 2026)
“Also recorded” adds a separate entry of the source.

Experiments:
[1] = test system: HEM (human epidermal melanocytes); experiment: FACS uptake of BODIPY FL conjugates, 50 nM, 5 min (Example 1); assay type: cell-based; conditions: HEM / normal melanocytes
Description: FIG. 1. Conjugate compounds coupled to BODIPY FL were tested for uptake using 50 nM each conjugate and 5 minute incubation with HEM (human epidermal melanocytes) and melanoma cell line NZM11 (BRAF V600E mutant metastatic melanoma). Mean fluorescent intensities (MFI). For these tests, n=300-500, mean±SD. Results were from a single experiment done in triplicate. Cells were sorted by FACS.
Materials and methods: NZM11 is an adherent metastatic melanoma cell derived from a patient with a subcutaneous lesion on their mid back. This human metastatic melanoma is identified with code CBA-1398 from Cell bank Australia. […] Cells of NZM11 diluted in MEMα media and cells of HEMnDP (primary melanocyte cell line) diluted in media 254 were left to settle in 96-wells microplate for 48 hours. 10 μL of 10 mM stock solutions in DMSO from 138 and pantothenic acid/pantothenic acid derivatives coupled to BODIPY were diluted with HBSS to afford 100 nM solution. Then, 100 nM compounds and DMSO solutions were diluted 1:1 with MEMα media for NZM11 and media 254 for HEMnDP to afford 50 nM solutions. After the 48 hour settle time, media was removed from the cells and 200 μL of 50 nM media solutions were poured to each well and incubated for 5 minutes at 37 °C. […] The FACS results output represented the mean of the fluorescence intensities (in arbitrary units) measured for cells sorted in every sample

[2] = test system: NZM11 (BRAF V600E) melanoma cells; experiment: FACS uptake of BODIPY FL conjugates, 200 nM, 5 min (Example 2); assay type: cell-based, human
Description: (§1) FIG. 2. Conjugate compounds coupled to BODIPY FL were tested for uptake using 200 nM each conjugate and 5 minute incubation with melanoma cell line NZM11 (BRAF V600E mutant metastatic melanoma), melanoma cell line NZM40 (NRAS Q16H mutant metastatic melanoma) and melanoma cell line NZM9 (BRAF and NRAS wildtype metastatic melanoma). Mean fluorescent intensities (MFI). 2,000 cells (NZM11), 1,000 cells (NZM40) and 500-1,000 cells (NZM9). Cells were sorted by FACS. Bars represent mean±SD. Results were from a single experiment done in triplicate.
Materials and methods: NZM11 is an adherent metastatic melanoma cell which was originally derived from a patient with a subcutaneous lesion on their mid back. This human metastatic melanoma is identified with code CBA-1398 from Cell Bank Australia. […] BRAF is a gene that makes a protein called B-Raf. The gene is involved in sending signals within cells that direct the cell's growth. Around 50% of melanomas bear activating BRAF mutations. In this family of mutations, V600E is the most common, which is a single mutation on codon 600. BRAF mutation is also most common in patients whose tumours arise on skin without chronic sun-induced damage. See Ascierto et al., 2012.
For screening, NZM11, NZM40 and NZM9 cells were suspended at […] dispensed into 96 well plates and left to settle for 48 hours. Then, 10 μL of 10 mM stock solutions in DMSO for the conjugates were diluted with HBSS to afford 400 nM solution. Next, 400 nM compounds and DMSO solutions were diluted 1:1 with MEMα media to afford 200 nM solutions. After 48 hours the media was removed from the 96 well plates and 200 μL of 200 nM conjugates solutions dispensed to each well (in triplicate) and incubated for 5 minutes at 37 °C. After 5 minutes, the media was removed and cells washed with PBS. […] The FACS results output were represented as the mean of the fluorescence intensities (in arbitrary units) measured for cells sorted in every sample.

[3] = test system: NZM9 (BRAF and NRAS wildtype) melanoma cells; experiment: as above; assay type: cell-based, human
Description: as §1
NZM9 is an adherent cell line which was originally derived from a metastatic melanoma from a patient (from axillary lymph node, source: Cellosaurus database). These cancer cells are BRAF and NRAS wild type. NZM9 present a mutation on gene TP53, which is the most frequent in human cancers, on 179C/T. This gene encodes the synthesis of protein p53 which acts as a tumour suppressor. See Tran et al., 2021; Levine and Owen, 2009; Duffy and Crown, 2021.
For screening, NZM11, NZM40 and NZM9 cells were suspended at […] dispensed into 96 well plates and left to settle for 48 hours. Then, 10 μL of 10 mM stock solutions in DMSO for the conjugates were diluted with HBSS to afford 400 nM solution. Next, 400 nM compounds and DMSO solutions were diluted 1:1 with MEMα media to afford 200 nM solutions. After 48 hours the media was removed from the 96 well plates and 200 μL of 200 nM conjugates solutions dispensed to each well (in triplicate) and incubated for 5 minutes at 37 °C. After 5 minutes, the media was removed and cells washed with PBS. Then, 100 μL of TrypLE trypsin (ThermoFisher Scientific) were added to each well and incubated for 5 minutes at 37 °C after which, 100 μL of MEMα media were added and samples were sorted through FACS biosort. The FACS results output were represented as the mean of the fluorescence intensities (in arbitrary units) measured for cells sorted in every sample.

[4] = test system: HT29 (colorectal cancer cell line); experiment: FACS uptake of BODIPY FL conjugates (Example 4); assay type: cell-based, human; conditions: 200 nM, 5 min
Description: FIG. 4A: Conjugate compounds coupled to BODIPY FL were tested for uptake using 200 nM each conjugate and 5 minute incubation with colorectal cancer cell line HT29. Mean fluorescent intensities (MFI). 1,000 cells were sorted by FACS.
Materials and methods: The HT-29 line was originally isolated from a primary tumour in 1964 from a person. This cell line is positive for expression of N-ras and overexpression of p53 antigen. The human colon adenocarcinoma cell line HT29, is not only used to study the biology of human colon cancers, but it is receiving special interest in studies focused on food digestion and bioavailability due to the ability to express characteristics of mature intestinal cells. The application of this cell line to transport studies of drugs and food compounds is illustrated, especially when the effect of the mucus layer is considered or used as co-culture in combination with Caco-2 cells. These cells have shown a high rate of glucose consumption and therefore, they require high glucose concentration in the medium. Verhoeck et al., 2015.
For these experiments, HT-29 or MEF cells were diluted on αMEM media (supplemented with 10% FBS+1% penicillin-streptomycin) to give a 250 cells/μL suspension of which 200 μL were aliquoted into each well of a 96 well plate followed by incubation for 24 hours. Next, 2 μL of 100 μM stock solutions in DMSO from the conjugates coupled to BODIPY were diluted with 998 μL of αMEM media to give a 200 nM solution. After 24 hour incubation, media was removed and 200 μL of 138 and pantothenic acid/pantothenic acid derivatives coupled to BODIPY 200 nM solutions were added and cells were incubated for 5 minutes at 37 °C. After 5 minutes, the compounds and DMSO solutions were removed and cells were washed with PBS. Then, 100 μL of TrypLE trypsin were added to each well and incubated for 5 minutes at 37 °C. After this time, 100 μL of DMEM media were added to the wells and samples were sorted through FACS biosort. The studies were completed in duplicated wells.

Structure (SMILES) | uptake (fluorescence intensities) [1] | higher fluorescence intensities compared to enantiomer 126 [2] | uptake (fluorescence intensities) [2] | higher fluorescence intensities compared to enantiomer 126 [3] | uptake (fluorescence intensities) [3] | uptake (fluorescent intensities) [4]
CC1=CC(C)=[N+]2C1=Cc1ccc(CCCn3cc(CCNC(=O)/C=C/NC(=O)[C@H](O)C(C)(C)CO)nn3)n1[B-]2(F)F [Compound 124] | no significant uptake | 15 fold | highest intensities; also recorded: best targeting activity | 7 times | highest intensities; also recorded: best targeting activity | –
CC1=CC(C)=[N+]2C1=Cc1ccc(CCCn3cc(CCNC(=O)/C=C/NC(=O)[C@@H]4OC(C)(C)OCC4(C)C)nn3)n1[B-]2(F)F [Compound 125, (R,E)-N-((((3-[4,4-difluoro-5,7-dimethyl-4-bora-3a,4a-diaza-s-indacene-3-yl]propyl)-1H-1,2,3-triazol-4-yl)eth-ylamino)-3-oxoprop-1-enyl)-2,2,5,5-tetramethyl-1,3-dioxane-4-carboxamide] | – | – | selective uptake; also recorded: significant uptake | – | selective uptake; also recorded: significant uptake | moderately higher fluorescent intensities
CC1=CC(C)=[N+]2C1=Cc1ccc(CCCn3cc(CCNC(=O)/C=C\NC(=O)[C@H]4OC(C)(C)OCC4(C)C)nn3)n1[B-]2(F)F [Compound 131, (Z)—N-((((3-[4,4-Difluoro-5,7-dimethyl-4-bora-3a,4a-diaza-s-indacene-3-yl]propyl)-1H-1,2,3-triazol-4-yl)ethylamino)-3-oxoprop-1-enyl)-2,2,5,5-tetramethyl-1,3-dioxane-4-carboxamide] | significant uptake | – | – | – | – | higher uptakes than their diol counterparts
